Tests used:
Experiment in all cases: relative viability (nuclei count vs DMSO), 5 days (fraction); higher = more cells survive
R406 + Navitoclax = compound: COc1cc(Nc2ncc(F)c(Nc3ccc4c(n3)NC(=O)C(C)(C)O4)n2)cc(OC)c1OC [R406] + CC1(C)CCC(c2ccc(Cl)cc2)=C(CN2CCN(c3ccc(C(=O)NS(=O)(=O)c4ccc(N[C@H](CCN5CCOCC5)CSc5ccccc5)c(S(=O)(=O)C(F)(F)F)c4)cc3)CC2)C1 [Navitoclax] (partner 0.5 µM)
In short: (§1)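 Relative viability divides the nuclei count in treated wells by that in vehicle wells. Lung cancer cell lines were seeded in 1536-well plates, dosed by pin tool the next day, and fixed and stained after 5 days in one step with final 0.05% Triton X-100, 1% formaldehyde and 1 ug/ml Hoechst. Dosing was a single drug or a fixed anchor-drug dose plus five library-drug doses (not always all listed) in √10 steps, and values are medians of duplicate plates imaged at 4×.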

Daporinad + Phenformin = compound: O=C(/C=C/c1cccnc1)NCCCCC1CCN(C(=O)c2ccccc2)CC1 [Daporinad] + N=C(N)NC(=N)NCCc1ccccc1 [Phenformin] (partner 250 µM)
In short: as §1

R406 + Bortezomib = compound: COc1cc(Nc2ncc(F)c(Nc3ccc4c(n3)NC(=O)C(C)(C)O4)n2)cc(OC)c1OC [R406] + CC(C)C[C@H](NC(=O)[C@H](Cc1ccccc1)NC(=O)c1cnccn1)B(O)O [Bortezomib] (partner 0.002 µM)
In short: as §1

R406 + Pemetrexed = compound: COc1cc(Nc2ncc(F)c(Nc3ccc4c(n3)NC(=O)C(C)(C)O4)n2)cc(OC)c1OC [R406] + Nc1nc2[nH]cc(CCc3ccc(C(=O)N[C@@H](CCC(=O)O)C(=O)O)cc3)c2c(=O)[nH]1 [Pemetrexed] (partner 0.2 µM)
In short: as §1

A-427
relative viability (R406 + Navitoclax; first compound 0.08 µM): 0.912 | relative viability (R406 + Navitoclax; first compound 0.253 µM): 1.02 | relative viability (R406 + Navitoclax; first compound 0.8 µM): 0.981 | relative viability (R406 + Navitoclax; first compound 2.53 µM): 0.572 | relative viability (R406 + Navitoclax; first compound 8 µM): 0.78 | relative viability (Daporinad + Phenformin; first compound 0.0005 µM): 0.298 | relative viability (Daporinad + Phenformin; first compound 0.001581 µM): 0.356 | relative viability (Daporinad + Phenformin; first compound 0.005 µM): 0.295 | relative viability (Daporinad + Phenformin; first compound 0.01581 µM): 0.191 | relative viability (R406 + Bortezomib; first compound 0.08 µM): 0.948 | relative viability (R406 + Bortezomib; first compound 0.253 µM): 1.01 | relative viability (R406 + Bortezomib; first compound 0.8 µM): 1.03 | relative viability (R406 + Bortezomib; first compound 2.53 µM): 0.526 | relative viability (R406 + Bortezomib; first compound 8 µM): 0.74 | relative viability (R406 + Pemetrexed; first compound 0.08 µM): 0.947 | relative viability (R406 + Pemetrexed; first compound 0.253 µM): 1.01 | relative viability (R406 + Pemetrexed; first compound 0.8 µM): 1.05 | relative viability (R406 + Pemetrexed; first compound 2.53 µM): 0.979 | relative viability (R406 + Pemetrexed; first compound 8 µM): 0.787

BEN
relative viability (R406 + Navitoclax; first compound 0.08 µM): 0.0867 | relative viability (R406 + Navitoclax; first compound 0.253 µM): 0.0733 | relative viability (R406 + Navitoclax; first compound 0.8 µM): 0.0583 | relative viability (R406 + Navitoclax; first compound 2.53 µM): 0.0663 | relative viability (R406 + Navitoclax; first compound 8 µM): 0.0726 | relative viability (Daporinad + Phenformin; first compound 0.0005 µM): 0.289 | relative viability (Daporinad + Phenformin; first compound 0.001581 µM): 0.237 | relative viability (Daporinad + Phenformin; first compound 0.005 µM): 0.261 | relative viability (Daporinad + Phenformin; first compound 0.01581 µM): 0.292 | relative viability (R406 + Bortezomib; first compound 0.08 µM): 0.685 | relative viability (R406 + Bortezomib; first compound 0.253 µM): 1.03 | relative viability (R406 + Bortezomib; first compound 0.8 µM): 1.02 | relative viability (R406 + Bortezomib; first compound 2.53 µM): 0.88 | relative viability (R406 + Bortezomib; first compound 8 µM): 0.553 | relative viability (R406 + Pemetrexed; first compound 0.08 µM): 0.773 | relative viability (R406 + Pemetrexed; first compound 0.253 µM): 0.879 | relative viability (R406 + Pemetrexed; first compound 0.8 µM): 0.805 | relative viability (R406 + Pemetrexed; first compound 2.53 µM): 0.835 | relative viability (R406 + Pemetrexed; first compound 8 µM): 0.438

CAL-12T
relative viability (R406 + Navitoclax; first compound 0.08 µM): 1.16 | relative viability (R406 + Navitoclax; first compound 0.253 µM): 1.21 | relative viability (R406 + Navitoclax; first compound 0.8 µM): 1.26 | relative viability (R406 + Navitoclax; first compound 2.53 µM): 1.05 | relative viability (R406 + Navitoclax; first compound 8 µM): 1.06 | relative viability (Daporinad + Phenformin; first compound 0.0005 µM): 0.523 | relative viability (Daporinad + Phenformin; first compound 0.001581 µM): 0.613 | relative viability (Daporinad + Phenformin; first compound 0.005 µM): 0.296 | relative viability (Daporinad + Phenformin; first compound 0.01581 µM): 0.188 | relative viability (R406 + Bortezomib; first compound 0.08 µM): 0.927 | relative viability (R406 + Bortezomib; first compound 0.253 µM): 1.18 | relative viability (R406 + Bortezomib; first compound 0.8 µM): 1.11 | relative viability (R406 + Bortezomib; first compound 2.53 µM): 0.423 | relative viability (R406 + Bortezomib; first compound 8 µM): 0.218 | relative viability (R406 + Pemetrexed; first compound 0.08 µM): 1.22 | relative viability (R406 + Pemetrexed; first compound 0.253 µM): 1.15 | relative viability (R406 + Pemetrexed; first compound 0.8 µM): 1.17 | relative viability (R406 + Pemetrexed; first compound 2.53 µM): 0.918 | relative viability (R406 + Pemetrexed; first compound 8 µM): 1

COR-L23
relative viability (R406 + Navitoclax; first compound 0.08 µM): 0.951 | relative viability (R406 + Navitoclax; first compound 0.253 µM): 1.04 | relative viability (R406 + Navitoclax; first compound 0.8 µM): 1.1 | relative viability (R406 + Navitoclax; first compound 2.53 µM): 0.836 | relative viability (R406 + Navitoclax; first compound 8 µM): 0.451 | relative viability (Daporinad + Phenformin; first compound 0.0005 µM): 0.422 | relative viability (Daporinad + Phenformin; first compound 0.001581 µM): 0.463 | relative viability (Daporinad + Phenformin; first compound 0.005 µM): 0.317 | relative viability (Daporinad + Phenformin; first compound 0.01581 µM): 0.194 | relative viability (R406 + Bortezomib; first compound 0.08 µM): 0.942 | relative viability (R406 + Bortezomib; first compound 0.253 µM): 1.14 | relative viability (R406 + Bortezomib; first compound 0.8 µM): 1.06 | relative viability (R406 + Bortezomib; first compound 2.53 µM): 0.907 | relative viability (R406 + Bortezomib; first compound 8 µM): 0.523 | relative viability (R406 + Pemetrexed; first compound 0.08 µM): 0.2 | relative viability (R406 + Pemetrexed; first compound 0.253 µM): 0.182 | relative viability (R406 + Pemetrexed; first compound 0.8 µM): 0.191 | relative viability (R406 + Pemetrexed; first compound 2.53 µM): 0.183 | relative viability (R406 + Pemetrexed; first compound 8 µM): 0.191

COR-L 105
relative viability (R406 + Navitoclax; first compound 0.08 µM): 0.858 | relative viability (R406 + Navitoclax; first compound 0.253 µM): 0.755 | relative viability (R406 + Navitoclax; first compound 0.8 µM): 1.02 | relative viability (R406 + Navitoclax; first compound 2.53 µM): 0.805 | relative viability (R406 + Navitoclax; first compound 8 µM): 0.558 | relative viability (Daporinad + Phenformin; first compound 0.0005 µM): 0.491 | relative viability (Daporinad + Phenformin; first compound 0.001581 µM): 0.485 | relative viability (Daporinad + Phenformin; first compound 0.005 µM): 0.545 | relative viability (Daporinad + Phenformin; first compound 0.01581 µM): 0.607 | relative viability (R406 + Bortezomib; first compound 0.08 µM): 0.68 | relative viability (R406 + Bortezomib; first compound 0.253 µM): 0.84 | relative viability (R406 + Bortezomib; first compound 0.8 µM): 1.06 | relative viability (R406 + Bortezomib; first compound 2.53 µM): 0.315 | relative viability (R406 + Bortezomib; first compound 8 µM): 0.246 | relative viability (R406 + Pemetrexed; first compound 0.08 µM): 1.29 | relative viability (R406 + Pemetrexed; first compound 0.253 µM): 1.22 | relative viability (R406 + Pemetrexed; first compound 0.8 µM): 1.12 | relative viability (R406 + Pemetrexed; first compound 2.53 µM): 1.24 | relative viability (R406 + Pemetrexed; first compound 8 µM): 0.841

ChaGo-K-1
relative viability (R406 + Navitoclax; first compound 0.08 µM): 0.969 | relative viability (R406 + Navitoclax; first compound 0.253 µM): 1.16 | relative viability (R406 + Navitoclax; first compound 0.8 µM): 1.01 | relative viability (R406 + Navitoclax; first compound 2.53 µM): 0.947 | relative viability (R406 + Navitoclax; first compound 8 µM): 0.44 | relative viability (Daporinad + Phenformin; first compound 0.0005 µM): 0.513 | relative viability (Daporinad + Phenformin; first compound 0.001581 µM): 0.532 | relative viability (Daporinad + Phenformin; first compound 0.005 µM): 0.434 | relative viability (Daporinad + Phenformin; first compound 0.01581 µM): 0.274 | relative viability (R406 + Bortezomib; first compound 0.08 µM): 1.02 | relative viability (R406 + Bortezomib; first compound 0.253 µM): 1.06 | relative viability (R406 + Bortezomib; first compound 0.8 µM): 1.11 | relative viability (R406 + Bortezomib; first compound 2.53 µM): 0.823 | relative viability (R406 + Bortezomib; first compound 8 µM): 0.347 | relative viability (R406 + Pemetrexed; first compound 0.08 µM): 0.25 | relative viability (R406 + Pemetrexed; first compound 0.253 µM): 0.25 | relative viability (R406 + Pemetrexed; first compound 0.8 µM): 0.248 | relative viability (R406 + Pemetrexed; first compound 2.53 µM): 0.253 | relative viability (R406 + Pemetrexed; first compound 8 µM): 0.233

EKVX
relative viability (R406 + Navitoclax; first compound 0.08 µM): 0.814 | relative viability (R406 + Navitoclax; first compound 0.253 µM): 1.03 | relative viability (R406 + Navitoclax; first compound 0.8 µM): 0.932 | relative viability (R406 + Navitoclax; first compound 2.53 µM): 0.77 | relative viability (R406 + Navitoclax; first compound 8 µM): 0.521 | relative viability (Daporinad + Phenformin; first compound 0.0005 µM): 0.212 | relative viability (Daporinad + Phenformin; first compound 0.001581 µM): 0.23 | relative viability (Daporinad + Phenformin; first compound 0.005 µM): 0.251 | relative viability (Daporinad + Phenformin; first compound 0.01581 µM): 0.227 | relative viability (R406 + Bortezomib; first compound 0.08 µM): 1.01 | relative viability (R406 + Bortezomib; first compound 0.253 µM): 1.17 | relative viability (R406 + Bortezomib; first compound 0.8 µM): 1.45 | relative viability (R406 + Bortezomib; first compound 2.53 µM): 0.994 | relative viability (R406 + Bortezomib; first compound 8 µM): 0.6 | relative viability (R406 + Pemetrexed; first compound 0.08 µM): 0.374 | relative viability (R406 + Pemetrexed; first compound 0.253 µM): 0.467 | relative viability (R406 + Pemetrexed; first compound 0.8 µM): 0.395 | relative viability (R406 + Pemetrexed; first compound 2.53 µM): 0.365 | relative viability (R406 + Pemetrexed; first compound 8 µM): 0.387

EMC-BAC-2
relative viability (R406 + Navitoclax; first compound 0.08 µM): 1.11 | relative viability (R406 + Navitoclax; first compound 0.253 µM): 1.38 | relative viability (R406 + Navitoclax; first compound 0.8 µM): 1.31 | relative viability (R406 + Navitoclax; first compound 2.53 µM): 1.12 | relative viability (R406 + Navitoclax; first compound 8 µM): 0.917 | relative viability (Daporinad + Phenformin; first compound 0.0005 µM): 0.57 | relative viability (Daporinad + Phenformin; first compound 0.001581 µM): 0.631 | relative viability (Daporinad + Phenformin; first compound 0.005 µM): 0.417 | relative viability (Daporinad + Phenformin; first compound 0.01581 µM): 0.298 | relative viability (R406 + Bortezomib; first compound 0.08 µM): 1.04 | relative viability (R406 + Bortezomib; first compound 0.253 µM): 1.13 | relative viability (R406 + Bortezomib; first compound 0.8 µM): 1.12 | relative viability (R406 + Bortezomib; first compound 2.53 µM): 1.04 | relative viability (R406 + Bortezomib; first compound 8 µM): 0.844 | relative viability (R406 + Pemetrexed; first compound 0.08 µM): 0.421 | relative viability (R406 + Pemetrexed; first compound 0.253 µM): 0.457 | relative viability (R406 + Pemetrexed; first compound 0.8 µM): 0.427 | relative viability (R406 + Pemetrexed; first compound 2.53 µM): 0.499 | relative viability (R406 + Pemetrexed; first compound 8 µM): 0.229
